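Where inhibition never reached the appropriate level, the endpoint shown equals the highest concentration tested. Otherwise, values were interpolated linearly from a five-concentration, 48-hour dose response in 96-well plates. Here, GI50 denotes the concentration required for 50% inhibition of growth. The concentration for full growth arrest is given as TGI.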

Results on 20 molecules are retold here after PubChem BioAssay (NCI).

Among the test systems are OVCAR-4 ovarian; HS 578T breast; UACC-257 melanoma; RXF 393 renal; NCI/ADR-RES ovarian; LOX IMVI melanoma; K-562 leukemia; TK-10 renal; SK-MEL-28 melanoma; SK-MEL-5 melanoma.
Assay in all cases: inhibition of tumour cell growth, NCI panel, 48 h

For the molecule `CCCCCCCCCCCCOC1C(COCCN2CCCC2)OC2OC(C)(C)OC21` (stereo unspecified), the TGI is 7.6 µM with OVCAR-4 ovarian; 3.51 µM in the assay with HS 578T breast; 3.14 µM in the assay with UACC-257 melanoma; 3.17 µM in the assay on RXF 393 renal; 4.37 µM in the assay on NCI/ADR-RES ovarian; 2.77 µM in the assay with LOX IMVI melanoma. Moreover, the TGI with K-562 leukemia turned out to be 2.7 µM; in the assay on TK-10 renal it was 3.03 µM; in the assay with SK-MEL-28 melanoma it was 3.12 µM; in the assay on SK-MEL-5 melanoma, 2.95 µM.

For `CNc1ccc2nc(-c3ccc(OC(=O)N(C)C)cc3)cn2c1`, the TGI with OVCAR-4 ovarian was 31.6 µM; in the assay with HS 578T breast it was above 100 µM; in the assay on UACC-257 melanoma, above 100 µM; in the assay on RXF 393 renal it was 26.1 µM; in the assay with NCI/ADR-RES ovarian, 59.1 µM; with LOX IMVI melanoma, 31.6 µM. In addition, the TGI is 49.7 µM in the assay on K-562 leukemia, 34.3 µM in the assay with TK-10 renal, above 100 µM in the assay on SK-MEL-28 melanoma and 57.1 µM in the assay with SK-MEL-5 melanoma.

For the molecule `CC1=NN(c2nc(N)nc(/C(C#N)=C/c3ccncc3)n2)C(C)(C)C1`, the TGI in the assay on OVCAR-4 ovarian, with HS 578T breast, with UACC-257 melanoma, in the assay with RXF 393 renal, in the assay on NCI/ADR-RES ovarian and in the assay on LOX IMVI melanoma was above 100 µM throughout. The TGI was 37.9 µM in the assay with K-562 leukemia, above 100 µM with TK-10 renal, above 100 µM in the assay on SK-MEL-28 melanoma and above 100 µM in the assay with SK-MEL-5 melanoma.

On to `CC(=O)N[C@@H](Cc1ccc(O)cn1)C(=O)NCc1ccc2c(c1)OCO2`, for which the TGI in the assay on OVCAR-4 ovarian, with HS 578T breast, with UACC-257 melanoma, with RXF 393 renal, in the assay with NCI/ADR-RES ovarian and in the assay on LOX IMVI melanoma was above 100 µM throughout. For the same molecule, the TGI in the assay with K-562 leukemia, in the assay with TK-10 renal, in the assay with SK-MEL-28 melanoma and in the assay on SK-MEL-5 melanoma was above 100 µM each time.

Turning to `NC(N)=N/N=C(\c1ccc(Cl)cc1)C1CC1`, the TGI was above 100 µM in the assay on OVCAR-4 ovarian; 78.3 µM with HS 578T breast; 28 µM in the assay on UACC-257 melanoma; above 100 µM in the assay on RXF 393 renal; 61.2 µM in the assay with NCI/ADR-RES ovarian; 30 µM in the assay with LOX IMVI melanoma. In addition, the TGI worked out at 55.7 µM with K-562 leukemia, 29.9 µM with TK-10 renal, 38.2 µM in the assay with SK-MEL-28 melanoma and 29 µM in the assay on SK-MEL-5 melanoma.

`CCOC(=O)/C=C1\Nc2ccccc2C12CCc1c([nH]c3ccccc13)C2C(=O)OCC` (stereo unspecified): the TGI with OVCAR-4 ovarian, in the assay on HS 578T breast, in the assay with UACC-257 melanoma, with RXF 393 renal, in the assay on NCI/ADR-RES ovarian and in the assay with LOX IMVI melanoma was above 100 µM throughout. Also, the TGI in the assay on K-562 leukemia, in the assay on TK-10 renal, with SK-MEL-28 melanoma and in the assay on SK-MEL-5 melanoma was above 100 µM throughout.

On to `COc1cc(C(=O)Nc2nnc(S(N)(=O)=O)s2)cc(OC)c1OC`, for which the TGI with OVCAR-4 ovarian, in the assay on HS 578T breast, in the assay on UACC-257 melanoma, with RXF 393 renal, in the assay with NCI/ADR-RES ovarian and in the assay on LOX IMVI melanoma was above 100 µM throughout. The TGI in the assay with K-562 leukemia, with TK-10 renal, in the assay on SK-MEL-28 melanoma and in the assay with SK-MEL-5 melanoma was above 100 µM in each case.

For `O=C1C/C(=C\O)C(=O)c2ccccc2N1`, the TGI in the assay with OVCAR-4 ovarian, with HS 578T breast, in the assay on UACC-257 melanoma, with RXF 393 renal, in the assay with NCI/ADR-RES ovarian and with LOX IMVI melanoma was above 100 µM each time. Further, the TGI in the assay on K-562 leukemia, in the assay with TK-10 renal, in the assay with SK-MEL-28 melanoma and in the assay on SK-MEL-5 melanoma was above 100 µM in each case.

In the case of `CC1=NNC(N)=N/C1=C/C(Sc1ccc(Cl)cc1)c1cccs1` (stereo unspecified), the TGI in the assay with OVCAR-4 ovarian was 76.6 µM; in the assay on HS 578T breast, above 100 µM; with UACC-257 melanoma it was 45.5 µM; in the assay on RXF 393 renal, 34.7 µM; in the assay on NCI/ADR-RES ovarian it was above 100 µM; in the assay with LOX IMVI melanoma, above 100 µM. In addition, the TGI in the assay with K-562 leukemia is 67.9 µM; in the assay on TK-10 renal, above 100 µM; in the assay with SK-MEL-28 melanoma, 39.7 µM; in the assay with SK-MEL-5 melanoma, 25.6 µM.

For the molecule `COc1cn2c(cc1=O)COc1ccc(-c3ccccc3)cc1-2`, the TGI in the assay on OVCAR-4 ovarian is above 100 µM; in the assay with HS 578T breast, above 100 µM; with UACC-257 melanoma, above 87.1 µM; in the assay on RXF 393 renal, above 100 µM; in the assay on NCI/ADR-RES ovarian, above 100 µM; with LOX IMVI melanoma, above 85.5 µM. Moreover, the TGI in the assay on K-562 leukemia was above 100 µM; with TK-10 renal, above 79.8 µM; in the assay with SK-MEL-28 melanoma it was above 100 µM; with SK-MEL-5 melanoma it was above 76 µM. In addition, the GI50 in the assay with HS 578T breast was 43.6 µM.

As for `c1ccc2c(c1)CC1c3[nH]c4ccccc4c3CCN21` (stereo unspecified), the TGI with OVCAR-4 ovarian, in the assay on HS 578T breast, in the assay with UACC-257 melanoma, with RXF 393 renal, in the assay with NCI/ADR-RES ovarian and in the assay with LOX IMVI melanoma was above 10 µM throughout. Moreover, the TGI in the assay with K-562 leukemia, with TK-10 renal, in the assay with SK-MEL-28 melanoma and in the assay with SK-MEL-5 melanoma was above 10 µM each time.

Turning to `O=C(Nc1cccc2nsnc12)c1cc2c(cc1Cl)Sc1nccn1S2(=O)=O`, the TGI in the assay on OVCAR-4 ovarian was 15.6 µM; in the assay on HS 578T breast, above 100 µM; in the assay on UACC-257 melanoma, 3.49 µM; with RXF 393 renal, 18 µM; in the assay with NCI/ADR-RES ovarian, 42.6 µM; with LOX IMVI melanoma it was above 63.8 µM. In addition, the TGI was above 44.5 µM in the assay on K-562 leukemia, 16.3 µM in the assay with TK-10 renal, 8.86 µM with SK-MEL-28 melanoma and 38.5 µM in the assay with SK-MEL-5 melanoma.

`O=C1c2cc(Cl)ccc2-n2c(noc2=O)C2CSCN12` (stereo unspecified): the TGI in the assay on OVCAR-4 ovarian, in the assay with HS 578T breast, in the assay with UACC-257 melanoma, in the assay with RXF 393 renal, with NCI/ADR-RES ovarian and in the assay with LOX IMVI melanoma was above 100 µM throughout. Moreover, the TGI in the assay on K-562 leukemia, in the assay on TK-10 renal, in the assay with SK-MEL-28 melanoma and in the assay on SK-MEL-5 melanoma was above 100 µM throughout.

For the molecule `COc1ccc(C2CC(c3c(C)nn(-c4ccccc4)c3-c3ccc(C)cc3O)=NN2c2ccccc2)cc1` (stereo unspecified), the TGI in the assay on OVCAR-4 ovarian, with HS 578T breast, in the assay with UACC-257 melanoma, in the assay with RXF 393 renal, with NCI/ADR-RES ovarian and in the assay with LOX IMVI melanoma was above 100 µM each time. Also, the TGI with K-562 leukemia, in the assay on TK-10 renal, in the assay on SK-MEL-28 melanoma and in the assay on SK-MEL-5 melanoma was above 100 µM each time.

For `CC1=NN(c2ccc(C)cc2)C2(C1)SCC(=O)N2c1nc2ccccc2s1` (stereo unspecified), the TGI with OVCAR-4 ovarian was above 100 µM; with HS 578T breast, above 100 µM; with UACC-257 melanoma it was 55.1 µM; in the assay with RXF 393 renal it was 54.8 µM; in the assay on NCI/ADR-RES ovarian it was 76.2 µM; with LOX IMVI melanoma it was 76.2 µM. Further, the TGI was above 100 µM in the assay with K-562 leukemia, 74.4 µM in the assay on TK-10 renal, above 100 µM in the assay with SK-MEL-28 melanoma and 24.2 µM with SK-MEL-5 melanoma.

Regarding `CN(C)CCCn1c2ccccc2c2cnccc21`, the TGI is above 100 µM in the assay on OVCAR-4 ovarian; above 100 µM in the assay on HS 578T breast; 39.3 µM in the assay on UACC-257 melanoma; above 100 µM in the assay with RXF 393 renal; above 100 µM with NCI/ADR-RES ovarian; 52.6 µM with LOX IMVI melanoma. Moreover, the TGI in the assay with K-562 leukemia was above 100 µM; with TK-10 renal it was 84.9 µM; in the assay with SK-MEL-28 melanoma, above 100 µM; with SK-MEL-5 melanoma it was 42.5 µM.

Take `CCOC(=O)c1c2c(n(C)c1-c1ccccc1)C(=O)C(C)=CC2=O`: the TGI came out at 20.3 µM in the assay on OVCAR-4 ovarian; 56.7 µM with HS 578T breast; 7.03 µM in the assay with UACC-257 melanoma; 23.6 µM in the assay with RXF 393 renal; 23.3 µM in the assay on NCI/ADR-RES ovarian; 13.2 µM in the assay on LOX IMVI melanoma. Besides, the TGI was above 33.2 µM with K-562 leukemia, 22.1 µM in the assay with TK-10 renal, 27.8 µM in the assay on SK-MEL-28 melanoma and 21.5 µM with SK-MEL-5 melanoma.

For the molecule `CC1(C)OC[C@@H](/C=C\CCO[Si](c2ccccc2)(c2ccccc2)C(C)(C)C)N1C(=O)c1ccccc1`, the TGI with OVCAR-4 ovarian was above 100 µM; in the assay with HS 578T breast it was 55.1 µM; in the assay on UACC-257 melanoma, 24.1 µM; with RXF 393 renal, 27.9 µM; in the assay on NCI/ADR-RES ovarian, above 100 µM; in the assay on LOX IMVI melanoma, 28.6 µM. Also, the TGI is 52.1 µM with K-562 leukemia, above 100 µM in the assay on TK-10 renal, above 100 µM in the assay with SK-MEL-28 melanoma and 12 µM in the assay on SK-MEL-5 melanoma.

With `CCCCC[C@H](O)[C@H](C)C=C1SCCCS1`, the TGI in the assay on OVCAR-4 ovarian, in the assay on HS 578T breast, in the assay on UACC-257 melanoma, with RXF 393 renal, with NCI/ADR-RES ovarian and with LOX IMVI melanoma was above 100 µM in each case. For the same molecule, the TGI with K-562 leukemia, in the assay with TK-10 renal, in the assay with SK-MEL-28 melanoma and in the assay on SK-MEL-5 melanoma was above 100 µM throughout.

Regarding `Oc1c2cccc1Cc1cccc3c1OCCOCCOCCOCCOc1c(cccc1Cc1cccc(c1O)C3)C2`, the TGI with OVCAR-4 ovarian, in the assay on HS 578T breast, in the assay on UACC-257 melanoma, with RXF 393 renal, in the assay on NCI/ADR-RES ovarian and with LOX IMVI melanoma was above 100 µM each time. Besides, the TGI in the assay on K-562 leukemia, in the assay on TK-10 renal, in the assay on SK-MEL-28 melanoma and in the assay on SK-MEL-5 melanoma was above 100 µM throughout.
